Experiments:
Assay type in all cases: in vivo
[1] = test system: cell adhesion molecules (ICAM-1 and VCAM-1); assay: Western blotting, protein expression of cell adhesion molecules in isolated microvessels of diabetic mice; details: cortex and hippocampus microvessels, GSNO vs untreated diabetic group
Procedure: (§1) Male laca mice weighing between 28-32 g were procured from the Central Animal House, Panjab University, Chandigarh. The animals were acclimatized and were fed with standard pellet diet and water ad libitum. The experimental protocols were approved by the Institutional Ethics Committee and were conducted according to Indian National Science Academy (INSA) guidelines for the use and care of experimental animals. The animals were divided into four groups: (i) Control animals received phosphate buffered saline (PBS) throughout the study; (ii) Control+GSNO animals were administered with GSNO 100 μg/kg body weight orally, dissolved in PBS after every 24 h for 8 weeks; (iii) Diabetic animals were injected with STZ at a dose of 40 mg/kg body weight intraperitoneally for 5 days dissolved in 0.1 mol/L citrate buffer, pH 4.5 and Diabetic+GSNO mice were administered GSNO 100 μg/kg body weight orally dissolved in PBS after every 24 h for 8 weeks after the induction of diabetes. Animals were assessed weekly for development of diabetic encephalopathy in terms of memory deficits. All experimental procedures were done on mice at the end of study. The microvessels were isolated by the method described by Brooks et al., (2005). […]

[2] = test system: tight junction proteins (ZO-1, Occludin, Claudin-5); assay: Immunofluorescence of tight junction proteins in isolated microvessels of diabetic mice
Procedure: Male laca mice weighing between 28-32 g were procured from the Central Animal House, Panjab University, Chandigarh. The animals were acclimatized and were fed with standard pellet diet and water ad libitum. The experimental protocols were approved by the Institutional Ethics Committee and were conducted according to Indian National Science Academy (INSA) guidelines for the use and care of experimental animals. The animals were divided into four groups: (i) Control animals received phosphate buffered saline (PBS) throughout the study; (ii) Control+GSNO animals were administered with GSNO 100 μg/kg body weight orally, dissolved in PBS after every 24 h for 8 weeks; (iii) Diabetic animals were injected with STZ at a dose of 40 mg/kg body weight intraperitoneally for 5 days dissolved in 0.1 mol/L citrate buffer, pH 4.5 and Diabetic+GSNO mice were administered GSNO 100 μg/kg body weight orally dissolved in PBS after every 24 h for 8 weeks after the induction of diabetes. Animals were assessed weekly for development of diabetic encephalopathy in terms of memory deficits. All experimental procedures were done on mice at the end of study.
The microvessels were isolated by the method described by Brooks et al., (2005). Brain tissue was homogenized in microisolation buffer (103 mM NaCl, 4.7 mM KCl, 2.5 mM CaCb, 1.2 mM KH2PO4, 1.2 mM MgSO4, 15 mM HEPES, 2.5 mM NaHCO3, 10 mM D-glucose, 1 mM sodium pyruvate and 10 g/L dextran (64,000 mol wt), pH 7.4) and equal amount of 26% (w/v) dextran was added. The sample was then centrifuged at 5600 g for 10 min and pellets obtained were resuspended in microisolation buffer. Then the suspension was filtered through 70 μm filter (BD Biosciences, Gurgaon, India). […]
Isolated microvessels were resuspended in PBS and allowed to attach to polylysine-coated slides for 30 min at 37° C. and fixed at 95° C. for 10 min. […] After placement and sealing of coverslips, photographs were taken with 40× objective on a Nikon TE-300 fluorescence microscope with a fluorescein filter (Schulze & Firth 1993).

[3] = test system: tight junction proteins (ZO-1, Occludin, Claudin-5); assay: Western blotting, protein expression of tight junction proteins in isolated microvessels of diabetic mice
Procedure: as §1, with “(2005). Brain tissue was homogenized in microisolation buffer (103 mM NaCl, 4.7 mM KCl, 2.5 mM CaCb, 1.2 mM KH2PO4, 1.2 mM MgSO4, 15 mM HEPES, 2.5 mM NaHCO3, 10 mM D-glucose, 1 mM sodium pyruvate and 10 g/L dextran (64,000 mol wt), pH 7.4) and equal amount of 26% (w/v) dextran was added. The sample was then centrifuged at 5600 g for 10 min and pellets obtained were resuspended in microisolation buffer. Then the suspension was filtered through 70 μm filter (BD Biosciences, Gurgaon, India). The filtered homogenates were then centrifuged at 3000 g for 10 min at 4° C. and the pellet was obtained. Protein expression of tight junction proteins and cell adhesion molecules i.e. ZO-1, occludin, Claudin-5, ICAM-1 and VCAM-1 was studied in microvessels obtained from cortex and hippocampus regions of the brain (Towbin et al., 1992).” for “(2005).”

[4] = microvessels of GSNO supplemented diabetic animals vs untreated diabetic group
[5] = microvessels of cortex and hippocampus, diabetic mice + GSNO 100 μg/kg oral 8 weeks

Q: Which “protein expression of ICAM-1” value [1] does the source give for `N[C@@H](CCC(=O)N[C@@H](CSN=O)C(=O)NCC(=O)O)C(=O)O` [GSNO, S-nitrosoglutathione] here?
A: significantly mitigate

Q: And the “protein expression of VCAM-1” value [1]?
A: significantly mitigate

Q: What about the claudin-5 fluorescent intensity ([2]; GSNO treated diabetic animals) of the same compound?
A: No change

Q: What about the “fluorescent intensity for ZO-1” value [2, 4] of the same compound?
A: increased fluorescent intensity

Q: And the “fluorescent intensity for occludin” value [2, 4]?
A: increased fluorescent intensity

Q: And the “protein expression of claudin-5” value ([3]; GSNO treated diabetic animals)?
A: no significant change

Q: What about the “increase of protein expression of ZO-1” value [3, 5] of the same compound?
A: ~70%

Q: And the “increase of protein expression of occludin” value [3, 5]?
A: ~60%

— patent publication US10925858B2, “S-nitrosoglutathione (GSNO) and GSNO reductase inhibitors for use in therapy” (MUSC FOUNDATION FOR RESEARCH DEVELOPMENT, priority 2017, dated 2021)
